Values after ≈ are worked out from the molar mass of the structure shown.
Columns and labels:
[1] = test system: Moloney murine sarcoma virus (MSV); test: MSV-induced transformation of C3H/3T3 cells; format: cell-based; settings: concentration required to inhibit MSV-induced C3H/3T3 cell transformation by 50%; day 6
Experimental: The cells were seeded in 1-ml-wells of a 48-well microtiter plate and exposed to 80 PFU (plaque forming units) for 60-90 minutes. Then, the virus was removed and culture medium containing appropriate concentrations of the test compounds were added (1 ml per well). At day 6 post infection, MSV-induced transformation of the cell culture was examined microscopically.

[2] = test system: HIV-1; test: HIV-1 induced cytopathicity in MT-4 cells; format: cell-based, human immunodeficiency virus type 1; settings: concentration required to inhibit HIV-induced cytopathicity in MT-4 cells by 50%; 5 days
Experimental: (§1) The activity of the compounds against HIV-1 and HIV-2 induced cytopathicity was examined in human lymphocyte MT-4 cells. […] The infected cell cultures were then incubated at 37° C. for 5 days in a humidified CO2-controlled incubator. Then, the cytopathicity of the virus was examined by determination of MT-4 cell viability by trypan blue dye staining.

[3] = test system: HIV-2; test: HIV-2 induced cytopathicity in MT-4 cells; format: cell-based, human immunodeficiency virus type 2; settings: concentration required to inhibit HIV-induced cytopathicity in MT-4 cells by 50%; 5 days
Experimental: as §1

[4] = test system: Moloney murine sarcoma virus (MSV); test: MSV-induced tumor formation and death in newborn NMRI mice, intraperitoneal administration; format: in vivo; settings: for Mean day of animal death: observed 20 days
Experimental: Two gram newborn NMRI mice were injected intramuscularly in the left hind leg with 50 μl of 250-fold diluted stock preparation of Moloney murine sarcoma virus. […] Another group of mice (20 animals) was administered RPMI-1640 medium as placebo. All compounds were solubilized in RPMI-1640 medium. The mice were observed daily for 20 days and the day of tumor initiation and the day of animal death was recorded for each animal. Statistical analyses were performed by calculating the standard deviation.

[5] = test system: C3H/3T3 cells; test: Microscopic alteration of C3H/3T3 cell culture morphology; format: cell-based, murine; settings: concentration that results in a microscopic alteration of the C3H/3T3 cell culture morphology
[6] = test system: retrovirus; test: Anti-retrovirus activity in vitro, conclusions on Table 1 (HIV-1, HIV-2, MSV); format: cell-based

Row | Structure (SMILES) | EC50 MSV [1] [µg/mL] | EC50 HIV-1 [2] [µg/mL] | EC50 HIV-2 [3] [µg/mL] | MIC [5] [µg/mL] | other results
1 | CCC(C)Nc1nc(N)nc2c1ncn2C[C@@H](C)OCP(=O)(O)O (stereo partly drawn) [(R)-9-PMP-6-(2-butyl)-DAP, 9-(R)-(2-Phosphonomethoxypropyl)-2-amino-6-(2-butyl)aminopurine] | 3.5 (≈ 9.77 µM) | 30 ± 19 (≈ 83.7 µM) | 25 ± 15 (≈ 69.8 µM) | – | –
2 | C[C@H](Cn1cnc2c(NCc3ccccc3)nc(N)nc21)OCP(=O)(O)O [(R)-9-PMP-6-benzyl-DAP, 9-(R)-(2-Phosphonomethoxypropyl)-2-amino-6-benzylaminopurine] | 0.3 (≈ 0.765 µM) | 10.3 (≈ 26.3 µM) | 8 (≈ 20.4 µM) | – | –
3 | CCCCNc1nc(N)nc2c1ncn2C[C@@H](C)OCP(=O)(O)O [(R)-9-PMP-6-butyl-DAP, 9-(R)-(2-Phosphonomethoxypropyl)-2-amino-6-butylaminopurine] | 3.27 (≈ 9.13 µM) | 13.1 (≈ 36.6 µM) | 9.8 (≈ 27.3 µM) | – | –
4 | C[C@H](Cn1cnc2c(NC3CCCCC3)nc(N)nc21)OCP(=O)(O)O [(R)-9-PMP-6-cyclohexyl-DAP, 9-(R)-(2-Phosphonomethoxypropyl)-2-amino-6-cyclohexylaminopurine] | – | 8.0 (≈ 20.8 µM) | 7 (≈ 18.2 µM) | – | –
5 | C[C@H](Cn1cnc2c(N(C)C)nc(N)nc21)OCP(=O)(O)O [(R)-9-PMP-6-dimethyl-DAP, 9-(R)-(2-Phosphonomethoxypropyl)-2-amino-6-dimethylaminopurine] | 3.25 (≈ 9.84 µM) | 2.3 (≈ 6.96 µM) | 4.2 (≈ 12.7 µM) | – | –
6 | C[C@H](Cn1cnc2c(N3CCOCC3)nc(N)nc21)OCP(=O)(O)O [(R)-9-PMP-6-morpholino-DAP, 9-(R)-(2-Phosphonomethoxypropyl)-2-amino-6-morpholinopurine] | 6.1 (≈ 16.4 µM) | >100 | >100 | – | –
7 | C[C@H](Cn1cnc2c(N3CCCCC3)nc(N)nc21)OCP(=O)(O)O [(R)-9-PMP-6-piperidino-DAP, 9-(R)-(2-Phosphonomethoxypropyl)-2-amino-6-piperidinopurine] | 12.6 (≈ 34 µM) | >100 | >100 | – | –
8 | C[C@H](Cn1cnc2c(S)nc(N)nc21)OCP(=O)(O)O [(R)-9-PMP-6-thioG, 9-(R)-(2-Phosphonomethoxypropyl)-2-amino-6-thiopurine] | 3.94 (≈ 12.3 µM) | >100 | >100 | – | –
9 | C[C@H](Cn1cnc2c(S)ncnc21)OCP(=O)(O)O [(R)-9-PMP-6-thioPu, 9-(R)-(2-Phosphonomethoxypropyl)-6-mercaptopurine] | 18 (≈ 59.2 µM) | >100 | >100 | – | –
10 | C[C@H](Cn1nnc2c(N)ncnc21)OCP(=O)(O)O [(R)-9-PMP-8-azaA, 9-(R)-(2-Phosphonomethoxypropyl)-8-azaadenine] | 0.43 (≈ 1.49 µM) | 2.42 (≈ 8.4 µM) | 1.75 (≈ 6.07 µM) | – | –
11 | Nc1ncnc2c1ncn2C[C@H](CF)OCP(=O)(O)O [(R)-FPMPA, reference compound] | – | – | – | >100 | Mean day of animal death ([4]; single i.p. dose 20 mg/kg): 10.4 ± 0.52 days; Mean day of animal death ([4]; single i.p. dose 50 mg/kg): 11.2 ± 0.92 days
12 | Nc1nc(N)c2ncn(C[C@H](CF)OCP(=O)(O)O)c2n1 [(R)-FPMPDAP, reference compound] | – | – | – | >100 | Mean day of animal death ([4]; single i.p. dose 10 mg/kg): 12.0 ± 1.0 days; Mean day of animal death ([4]; single i.p. dose 25 mg/kg): 14.1 ± 1.5 days; Mean day of animal death ([4]; single i.p. dose 50 mg/kg): 13.9 ± 1.4 days
13 | C[C@H](Cn1cnc2c(=O)[nH]c(N)nc21)OCP(=O)(O)O [(R)-PMPG, 9-(R)-(2-phosphonomethoxypropyl)guanine] | – | – | – | 40 (≈ 132 µM) | –
14 | Nc1ncnc2c1ncn2C[C@@H](CF)OCP(=O)(O)O [(S)-FPMPA, reference compound] | – | – | – | >100 | Mean day of animal death ([4]; single i.p. dose 10 mg/kg): 13.6 ± 2.8 days; Mean day of animal death ([4]; single i.p. dose 20 mg/kg): 17.2 ± 2.2 days; percentage of MSV-infected mice still alive at day 20 post infection ([4]; single i.p. dose 50 mg/kg): 100%; Mean day of animal death ([4]; single i.p. dose 50 mg/kg): > 20 days
15 | Nc1nc(N)c2ncn(C[C@@H](CF)OCP(=O)(O)O)c2n1 [(S)-FPMPDAP, reference compound] | – | – | – | >100 | Mean day of animal death ([4]; single i.p. dose 10 mg/kg): 16.7 ± 3.2 days; Mean day of animal death ([4]; single i.p. dose 25 mg/kg): 14.6 ± 2.2 days; Mean day of animal death ([4]; single i.p. dose 50 mg/kg): 16.5 ± 0.71 days
16 | C[C@@H](Cn1cnc2c(N)ncnc21)OCP(=O)(O)O [(S)-PMPA, 9-(S)-(2-Phosphonomethoxypropyl)adenine] | – | – | – | >100 | antiretroviral activity in vivo (in words) ([4]; i.p. dose of 50 mg/kg): no marked antiretroviral activity; Mean day of animal death ([4]; single i.p. dose 10 mg/kg): 10.9 ± 0.88 days; Mean day of animal death ([4]; single i.p. dose 20 mg/kg): 10.9 ± 0.88 days; Mean day of animal death ([4]; single i.p. dose 50 mg/kg): 12.4 ± 0.84 days; antiretroviral activity in vitro (in words) [6]: devoid of marked antiretroviral activity
17 | C[C@@H](Cn1cnc2c(N)nc(N)nc21)OCP(=O)(O)O [(S)-PMPDAP, 9-(S)-(2-phosphonomethoxypropyl)-2,6-diaminopurine] | – | – | – | >100 | –
18 | C[C@@H](Cn1cnc2c(=O)[nH]c(N)nc21)OCP(=O)(O)O [(S)-PMPG, 9-(S)-(2-Phosphonomethoxypropyl)guanine] | – | – | – | 8 (≈ 26.4 µM) | –
19 | Nc1ncnc2c1ncn2CCOCP(=O)(O)O [PMEA, reference compound] | – | – | – | >100 | –

Reference: US6653296B1, “Antiretroviral enantiomeric nucleotide analogs” (Institute of Organic Chemistry and Biochemistry of the …, priority 1992, dated 2003)
